Laboratory results as given in patent EP1803452A1, “ESTER DERIVATIVE AND PHARMACEUTICAL USE THEREOF” (Japan Tobacco, Inc., priority 2004, dated 2006).

Key:
[1] = Stability test in buffer (pH 7.4); type: physicochemical; conditions: phosphate buffer/acetonitrile 7:3, 100 mM potassium phosphate buffer (pH 7.4) and acetonitrile 7:3 (v/v), LC/MS; for remaining at 10 min: 10 minutes at 37°C, read-out: Buf. remaining rate (%/10min); for remaining at 1 h: 60 minutes at 37°C, read-out: Buf. remaining rate (%/60min)
Method in brief: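 Parent compound measured by LC/MS after 0, 10 or 60 min at 37°C in a 7:3 (v/v) mix of 100 mM potassium phosphate buffer and acetonitrile, with the reaction stopped by acetonitrile plus formic acid (final 0.1%). Percentage remaining is expressed relative to the zero-time amount.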

[2] = Metabolic stability test in plasma; type: in vitro ADME, human; conditions: LC/MS; for remaining at 10 min: unchanged form after 10 minutes at 37°C in human plasma, read-out: Remaining rate in human plasma (%/10min); for remaining at 1 h: unchanged form after 60 minutes at 37°C in human plasma, read-out: Remaining rate in human plasma (%/60min)
Method in brief: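 Remaining rate (%) versus zero time was derived from LC/MS measurement of parent compound after centrifugation. Plasma from human, mouse and hamster received DMSO-dissolved compound and was held at 37°C for 0, 10 or 60 minutes before acetonitrile containing formic acid (final 0.1%) stopped the reaction.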

[3] = molecular target: T1, Microsomal triglyceride transfer protein (MTP) from human small intestine microsome (Homo sapiens, UniProt P55157); experiment: Inhibition test of interliposomal triglyceride (TG) transfer activity by MTP; type: biochemical; conditions: purified MTP from human small intestine microsome, 14C-triolein donor/acceptor liposomes, 37 °C for 1.5 hours
T1 construct: Human small intestine microsome was dialyzed against 10 mM phosphate buffer; tissue Tissue Transforming Technologies, Inc; host or cells: Human small intestine microsomes, dialysed, centrifuged, and the supernatant purified on DEAE Sepharose (FPLC)
From the text: Firstly, in order to prepare the donor, there were volatilized under a stream of nitrogen gas a phosphatidylcholine solution containing phosphatidylcholine labeled with ^3H, a cardiolipin solution, and a triolein solution containing triolein labeled with ^14C (each solution had been already dissolved in an appropriate organic solvent), or in order to prepare the acceptor, there were volatilized under nitrogen flow a phosphatidylcholine solution containing phosphatidylcholine labeled with ^3H and a cardiolipin solution (each solution had been already dissolved in an appropriate organic solvent). An appropriate amount of a reaction buffer (15 mM Tris-HCl buffer containing 1 mM EDTA.Na2, 40 mM NaCl, and 0.5% (w/v) bovine serum albumin, pH 7.4) was added thereto to be emulsified. […] Each of the resulting supernatant was used for donor or acceptor.
Each radioactivity in the acceptor and the donor was measured by liquid scintillation counter, and a mixed solution of the acceptor and the donor was prepared with a reaction buffer so as to be a donor-derived radioactivity of 16,000 dpm/400 µL and a acceptor-derived radioactivity of 4,000 dpm/400 µL. 400 µL of the mixed solution of the donor and the acceptor, 45 µL of the reaction buffer, 50 µL of MTP (20 µg/mL), and 5 µL of a sample dissolved in DMSO (dimethyl sulfoxide) or 5 µL of DMSO was mixed (total amount: 500 µL). The mixture was incubated at 37 °C for 1.5 hours. […] The radioactivity in the acceptor was measured by liquid scintillation counter. The value obtained by subtracting the radioactivity in a blank group from the radioactivity in the acceptor of a DMSO group was determined as MTP-mediated TG transfer activity, and it was compared with the value obtained by subtracting the radioactivity in the blank group from the radioactivity in a sample group. […] Inhibition rate (%) was calculated from values obtained according to the following equation. Inhibition rate(%) = (1 minus ((radioactivity of sample group minus radioactivity of blank group)/(radioactivity of DMSO group minus radioactivity of blank group))) × 100.

[4] = Metabolic stability test in liver S9; type: in vitro ADME; conditions: pH 7.4, human liver S9 2 mg protein/mL, LC/MS; for remaining at 10 min: unchanged form after 10 minutes at 37°C, read-out: Remaining rate in human liver S9 (%/10min); for remaining at 1 h: unchanged form after 60 minutes at 37°C, read-out: Remaining rate in human liver S9 (%/60min)
Method in brief: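 Compound from DMSO solution was incubated at 37°C with human liver S9 (final 2 mg protein/mL) in 100 mM potassium phosphate pH 7.4 with an NADPH-regenerating system for 0, 10 and 60 minutes. Reactions were stopped with acetonitrile/0.1% formic acid. Unchanged compound was measured by LC/MS as remaining rate (%) relative to zero time.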

T1 sequence (P55157 19-894): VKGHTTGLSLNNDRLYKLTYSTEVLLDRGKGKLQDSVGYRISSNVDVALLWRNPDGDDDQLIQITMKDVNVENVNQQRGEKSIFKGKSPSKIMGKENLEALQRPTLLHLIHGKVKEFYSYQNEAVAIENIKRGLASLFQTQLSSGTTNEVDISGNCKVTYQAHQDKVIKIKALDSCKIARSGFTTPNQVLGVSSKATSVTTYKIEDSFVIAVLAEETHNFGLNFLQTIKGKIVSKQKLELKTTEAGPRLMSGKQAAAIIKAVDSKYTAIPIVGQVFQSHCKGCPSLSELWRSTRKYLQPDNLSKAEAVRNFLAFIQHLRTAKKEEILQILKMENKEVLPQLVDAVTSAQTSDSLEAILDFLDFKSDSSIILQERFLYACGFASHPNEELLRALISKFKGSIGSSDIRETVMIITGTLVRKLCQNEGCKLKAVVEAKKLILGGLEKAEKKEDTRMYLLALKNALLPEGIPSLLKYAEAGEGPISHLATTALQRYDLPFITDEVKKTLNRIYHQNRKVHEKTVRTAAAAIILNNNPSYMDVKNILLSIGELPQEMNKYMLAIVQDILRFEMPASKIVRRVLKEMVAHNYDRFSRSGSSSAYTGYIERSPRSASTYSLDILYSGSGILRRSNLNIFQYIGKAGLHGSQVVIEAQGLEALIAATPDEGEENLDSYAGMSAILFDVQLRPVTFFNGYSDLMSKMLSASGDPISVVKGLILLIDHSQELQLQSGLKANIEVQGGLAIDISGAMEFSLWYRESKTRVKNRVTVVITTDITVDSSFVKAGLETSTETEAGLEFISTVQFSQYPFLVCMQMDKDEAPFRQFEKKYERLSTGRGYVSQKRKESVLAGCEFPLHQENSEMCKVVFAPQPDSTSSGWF
T1 sequence (P07237 18-508 partner): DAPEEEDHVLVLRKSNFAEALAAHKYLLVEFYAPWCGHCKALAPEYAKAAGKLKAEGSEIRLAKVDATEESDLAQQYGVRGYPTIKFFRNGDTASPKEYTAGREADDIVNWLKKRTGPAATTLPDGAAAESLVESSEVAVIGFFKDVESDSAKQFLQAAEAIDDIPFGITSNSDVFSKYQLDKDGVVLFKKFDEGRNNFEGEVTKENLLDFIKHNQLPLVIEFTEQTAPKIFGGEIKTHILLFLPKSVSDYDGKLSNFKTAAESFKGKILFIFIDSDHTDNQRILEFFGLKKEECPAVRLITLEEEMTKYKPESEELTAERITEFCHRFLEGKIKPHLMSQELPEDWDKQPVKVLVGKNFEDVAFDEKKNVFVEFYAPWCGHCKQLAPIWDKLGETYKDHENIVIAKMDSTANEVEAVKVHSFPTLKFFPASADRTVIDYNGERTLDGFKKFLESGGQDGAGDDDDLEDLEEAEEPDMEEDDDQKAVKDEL

Row | remaining at 10 min [1] | remaining at 1 h [1] | remaining at 10 min [2] | remaining at 1 h [2] | Human intestine MTP (IC50(nM)) [3] | remaining at 10 min [4] | remaining at 1 h [4] | Compound
1 | 94% | 97% | 34% | 0% | ++ + | 0% | 0% | COC(=O)c1ccc(OC(=O)CCCc2ccc(NC(=O)c3ccc(C)cc3-c3ccc(C(F)(F)F)cc3)c(C(=O)N(C)C)c2)cc1 [Compound 1-9, 4-(4-{3-dimethylcarbamoyl-4-[(5-methyl-4'-trifluoromethylbiphenyl-2-carbonyl)amino]phenyl}butyryloxy) benzoic acid methyl ester]
2 | 97% | 105% | 0% | 0% | + ++ | 10% | 2% | CCOC(=O)c1cc(OC)c(OC(=O)CCCc2ccc(NC(=O)c3ccc(C)nc3-c3ccc(C(F)(F)F)cc3)c(C(=O)N(C)C)c2)c(C(=O)OC)c1 [Compound 1-54, 4-[4-(3-dimethylcarbamoyl-4-{[6-methyl-2-(4-trifluoromethylphenyl)pyridine-3-carbonyl]amino}phenyl)butyryloxy]-5-methoxyisophthalic acid 1-ethyl ester 3-methyl ester]
3 | 101% | 104% | 0% | 0% | + ++ | 0% | 0% | COC(=O)c1ccc(OC(=O)CCCc2ccc(NC(=O)c3ccc(C)nc3-c3ccc(C(F)(F)F)cc3)c(C(=O)N(C)C)c2)c(C(=O)OC)c1 [Compound 1-70, 4-[4-(3-dimethylcarbamoyl-4-{[6-methyl-2-(4-trifluoromethylphenyl)pyridine-3-carbonyl]amino}phenyl)butyryloxy]isophthalic acid dimethyl ester]
4 | 98% | 98% | 85% | 40% | – | 0% | 0% | CC(C)n1nnc(-c2ccc(OC(=O)CCCc3ccc(NC(=O)c4ccccc4-c4ccc(C(F)(F)F)cc4)c(C(=O)N(C)C)c3)cc2)n1 [Compound 1-115, 4-(3-dimethylcarbamoyl-4-{(4'-trifluoromethylbiphenyl-2-carbonyl)amino}phenyl)butyric acid 4-(2-isopropyl-2H-tetrazol-5-yl)phenyl ester]
5 | 98% | 102% | 63% | 6% | – | 2% | 0% | COC(=O)c1ccc(OC(=O)C2CCN(c3ccc(NC(=O)c4ccccc4-c4ccc(C(F)(F)F)cc4)c(C(=O)N(C)C)c3)CC2)cc1 [Compound 3-1, 1-(3-dimethylcarbamoyl-4-[(4'-trifluoromethylbiphenyl-2-carbonyl)amino]phenyl}piperidine-4-carboxylic acid 4-methoxycarbonylphenyl ester]
6 | 94% | 97% | 24% | 0% | – | 2% | 0% | COC(=O)c1ccc(OC(=O)C2CCN(c3ccc(NC(=O)c4ccccc4-c4ccc(C(F)(F)F)cc4)c(C(=O)N(C)C)c3)CC2)c(F)c1 [Compound 3-2, 1-{3-dimethylcarbamoyl-4-[(4'-trifluoromethylbiphenyl-2-carbonyl)amino]phenyl}piperidine-4-carboxylic acid 2-fluoro-4-methoxycarbonylphenyl ester]
7 | 99% | 101% | 25% | 0% | – | 0% | 0% | COC(=O)c1ccc(-c2nc(C)ccc2C(=O)Nc2ccc(CCCC(=O)Oc3c(C)cc(C(=O)OC)cc3Cl)cc2C(=O)N(C)C)cc1 [Compound 4-1, 3-chloro-4-[4-(3-dimethylcarbamoyl-4-{[2-(4-methoxycarbonylphenyl)-6-methylpyridine-3-carbonyl]amino}phenyl)butyryloxy]-5-methylbenzoic acid methyl ester]
8 | 98% | 97% | 34% | 0% | – | 2% | 0% | COC(=O)c1ccc(-c2nc(C)ccc2C(=O)Nc2ccc(CCCC(=O)Oc3c(C)cc(C(=O)OC)cc3C(=O)OC)cc2C(=O)N(C)C)cc1 [Compound 4-2, 4-[4-(3-dimethylcarbamoyl-4-{[2-(4-methoxycarbonylphenyl)-6-methylpyridine-3-carbonyl]amino}phenyl)butyryloxy]-5-methylisophthalic acid dimethyl ester]
9 | 101% | 102% | 0% | 0% | – | 1% | 0% | COC(=O)c1ccc(OC(=O)CCCc2ccc(NC(=O)c3ccccc3-c3ccc(C(=O)OC)cc3)c(C(=O)N(C)C)c2)cc1 [Compound 4-3, 2'-{2-dimethylcarbamoyl-4-[3-(4-methoxycarbonylphenoxycarbonyl)propyl]phenylcarbamoyl}biphenyl-4-carboxylic acid methyl ester]
10 | 99% | 97% | 0% | 0% | – | 4% | 0% | COC(=O)c1ccc(-c2nc(C)ccc2C(=O)Nc2ccc(CCCC(=O)Oc3c(Cl)cc(C(=O)OC)cc3OC)cc2C(=O)N(C)C)cc1 [Compound 4-4, 3-chloro-4-[4-(3-dimethylcarbamoyl-4-{[2-(4-methoxycarbonylphenyl)-6-methylpyridine-3-carbonyl]amino}phenyl)butyryloxy]-5-methoxybenzoic acid methyl ester]

Row | Compound | remaining at 10 min [1] | remaining at 1 h [1] | remaining at 10 min [2] | remaining at 1 h [2] | Human intestine MTP (IC50(nM)) [3] | remaining at 10 min [4] | remaining at 1 h [4]
11 | COC(=O)c1ccc(OC(=O)CN(C)Cc2ccc(NC(=O)c3ccccc3-c3ccc(C(F)(F)F)cc3)c(C(=O)N(C)C)c2)cc1 [Compound 2-1, 4-[2-({3-dimethylcarbamoyl-4-[(4'-trifluoromethylbiphenyl-2-carbonyl)amino]benzyl}methylamino)acetoxy]benzoic acid methyl ester] | 95% | 95% | 47% | 0% | – | 0% | 0%
